Experimental data as given in paper PMC7418971 (PLoS Pathogens, 2020).
Like-named read-outs stand apart in the source and are kept apart here.

Experiments:
[1] = system: A/England/195/2009 (E195) influenza A virus; assay: microbe, parasite or virus in culture; assay type: cell-based; conditions: for IC50: read-out: Virus culture IC50
[2] = system: Eng195 M2-N31 TM/CD peptides; assay type: biochemical
[3] = system: Eng195 in MDCK culture; assay type: cell-based, influenza A virus
[4] = system: H1N1 WSN virus; conditions: read-out: EC50 in antiviral plaque assay; cited from earlier work
[5] = system: M2-N31 and M2-S31 CD peptides; assay type: biochemical, Influenza A/England/195/2009 (H1N1)

Structure (SMILES)	antiviral effect versus Eng195 in culture [1]	TM/CD peptide preference in titration [2]	combination effect with M2WJ332 [3]	Virus culture Fold Titre Reduction (80 µM) [1]	IC50 ([1]; Influenza A virus, MDCK)	further results
CN1CCN(C(=O)c2ccc3ccccc3c2)CC1 [B]	neither B nor K exhibited antiviral effects	–	–	–	–	–
Cc1c2ccccc2n2cc(-c3ccccc3)nc(C(C)C)c12 [DL7]	–	preference for CD peptides but with activity versus TM at higher concentrations	antagonism	100x	1.48 µM	combination effect with L1.1 [3]: antagonism
Cc1ccc2nc(Oc3ccccc3)ccc2c1 [DP9]	–	preferential inhibition of CD peptides	synergistic	100x	25 to 50 µM	IC50 [1]: > 25 µM
c1cc2nc(C34CC5CC(CC(C5)C3)C4)[nH]c2cn1 [D]	antiviral effects	–	–	–	–	–
Cc1ncc(C23CC4CC(CC(C4)C2)C3)[nH]1 [H]	antiviral effects	–	–	–	–	–
OCCNC12CC3CC(CC(C3)C1)C2 [J]	antiviral effects	–	–	–	–	–
O=C(Nc1nnc[nH]1)c1cc2ccccc2o1 [K]	neither B nor K exhibited antiviral effects	–	–	–	–	–
COc1ccccc1NC(=S)NC(=O)c1cc2ccccc2cc1OC [L1.1]	–	equivalent activity versus both TM/CD	synergistic	1000x	1.33 µM	combination effect with Zanamivir [3]: synergistic; reduction in virus titre [1]: ~3 log10
c1csc(-c2cc(CNC34CC5CC(CC(C5)C3)C4)no2)c1 [M2WJ332, (3S,5S,7S)-N-{[5-(thiophen-2-yl)-1,2-oxazol-3-yl]methyl}tricycle[3.3.1.1~3,7~]decan-1-aminium, reference compound]	–	–	–	100x	1.18 µM	EC50 [4]: 0.153 µM; reduction in virus titre [1]: 1–2 log10; IC50 [1]: 1.18 µM
CCCCCCCCCN1C[C@H](O)[C@@H](O)[C@H](O)[C@H]1CO [NNDNJ, reference compound]	antiviral effects	–	–	–	–	effect on M2 oligomerisation [5]: disrupted oligomerisation
